The results in this text go back to patent US9198915B2, “Methods involving aldose reductase inhibitors” (The Board of Regents of The University of Texas System, priority 2007, dated 2015).

The inhibition is the percentage by which the read-out fell short of the control.

Experiment [1] concerns SAEC. As to the kind of experiment: RW-induced apoptosis in SAEC (annexin V/PI flow cytometry). The format is cell-based, human. The conditions noted are these: zopolrestat 20 μM, RW 150 μg/ml, 18 h. As for the experimental part:
Small Airway Epithelial cells (SAEC) obtained from Cambrex Bio Science Walkersville, Inc. (Walkersville, Md.) contains normal human SAEC from distal airspace of donor. The cells were cultured according to the supplier's instructions at 37° C. in humidified atmosphere containing 95% air and 5% CO2 in small airway epithelial basal medium (SABM) with supplements containing 52 μg/ml bovine pituitary extract, 0.5 ng/ml human recombinant epidermal growth factor (EGF), 0.5 μg/ml epinephrine, 1 μg/ml hydrocortisone, 10 μg/ml transferrin, 5 μg/ml insulin, 0.1 ng/ml retinoic acid (RA), 6.5 ng/ml triiodothyronine, 50 μg/ml Gentamicin/Amphotericin-B (GA-1000), and 50 μg/ml fatty acid-free bovine serum albumin (BSA).
Approximately 2×10^5 SAEC/well were plated in 6-well plates in triplicate for each group. After 24 hours, the medium was replaced with serum-free SABM with or without zopolrestat (20 μM). The cells were induced by RW (150 μg/mL) and incubated for 18 h. Apoptotic cell death was examined using the annexin V-FITC/PI, (molecular probes, Invitrogen) according to the manufacturer's instructions. Twenty thousand events were acquired for each sample and analyzed by flow cytometry using the LYSIS II software (FACScan, BD Pharmingen).
(In general: In flow cytometry, cells or beads pass a laser one at a time.)

In experiment [2] the test system is SAEC. As to the kind of experiment: RW-induced ROS generation in SAEC (DHE). The experiment is classed as cell-based, human. As to conditions: SAEC preincubated with AR inhibitor, RW 150 μg/mL. As for the experimental part: Dihydroethidium (DHE, Molecular Probes) staining for superoxide was carried out as described previously. Briefly, Approximately 1×10^5 cells were seeded on chambered slides and starved in serum-free SABM with or without AR inhibitor for 24 h. The cells were treated with RW for 16 h. SAEC were rinsed with cold PBS and incubated in PBS containing HEt (2.5 mmol/L) at 37° C. for 15 minutes. Cells were rinsed in PBS and mounted with Vectashield Hard Set™ mounting medium with DAPI (Vector Laboratories Inc., Burlingame, Calif.). The image of ethidium staining was measured with a Nikon epifluorescence microscope with a 585 nm long-pass filter.

In experiment [3] the test system is NF-κB and AP-1. Description: RW-induced NF-κB and AP-1 activation in SAEC (EMSA). The format is cell-based, human. As for the experimental part:
The SAEC were pretreated with or without AR inhibitors for 24 h in starving medium, followed by treatment with Ragweed pollens (RW) (50 μg/ml) for 2 h at 37° C. The nuclear extracts were prepared as described. Briefly, SAEC were harvested and washed with cold PBS and suspended in 0.1 ml of hypotonic lysis buffer containing protease inhibitors for 10 min. The cells were then lysed with 5 μl of 10% Nonidet P-40. The homogenate was centrifuged (6000 rpm; 1 min.), and supernatant containing the cytoplasmic extracts was stored frozen at −80° C. The nuclear pellet was resuspended in 50 μl ice-cold nuclear extraction buffer. After 30 min of intermittent mixing, the extract was centrifuged (12000 rpm; 15 min.), and supernatants containing nuclear extracts were secured. The protein content was measured by the Bradford method. If they were not used immediately, they were stored at −80° C. The Consensus oligonucleotides for NF-κB and AP-1 transcription factors were 5′-end labeled using T4 polynucleotide kinase. EMSA was performed as described. The specificity of the assay was examined by competition with an excess of unlabeled oligonucleotide and supershift assays with antibodies to p65.

For experiment [4], the system named is NF-κB. As to the kind of experiment: NF-κB-dependent SEAP reporter assay in TNF-α- or LPS-treated SAEC. The format is cell-based, human. As for the experimental part: SAEC cells (1×10^5 cells/well) were plated in 24-well plates, serum starved in basal medium with AR inhibitor, sorbinil and zopolrestate (20 μM) or carrier for 24 h, and transiently transfected with pNF-κB-secretory alkaline phosphatase (SEAP) construct or control plasmid pTALSEAP DNA (Clontech, Palo Alto, Calif.) using the LipofectAMINE Plus reagent. After 6 hours of transfection medium was replaced with fresh medium and cells were incubated with either TNF-α (2 nM) or LPS (1 μg/mL) or carrier for 48 h. The cell culture medium was then harvested and analyzed for SEAP activity, essentially as described by the manufacturer (Clontech, Palo Alto, Calif.), using a 96-well chemiluminescence plate reader.
A general note: In a reporter assay the amount or activity of a reporter protein is the signal.

The test system of experiment [5] is TNF-α, NO and PGE2 in aqueous humor. Description: EIU: TNF-α, NO and PGE2 in aqueous humor (ELISA kits). The experiment is classed as in vivo, rat. The conditions noted are these: 6 and 24 h after EIU-induction. As for the experimental part:
Six to eight-weeks-old male Lewis rats weighing approximately 150-160 g were used in this study (n=6). All animals were kept in the UTMB's Animal Care Center. All the animal studies were conducted in compliance with the ARVO statement for the use of Animals in Ophthalmic and Vision Research. EIU was induced by a subcutaneous injection of Escherichia coli LPS (200 μg) dissolved in phosphate-buffered saline (PBS, pH 7.4). Rats in ART and ETU+ARI groups were injected intraperitoneally with AR inhibitor zopolrestat (25 mg/kg body weight) dissolved in dimethyl-sulfoxide (DMSO) 24 h before and immediately after LPS injection. Rats of control group received carrier (PBS+20% DMSO) injection.
The levels of TNF-α in the AqH (stored at −80° C.) were assessed with commercially available ELISA kit, according to the manufacturer's instructions. The total level of nitrate plus nitrite in the AqH was measured by using a total nitrite colorimetric assay ([…]) kit according to the manufacturer's instructions. PGE2 production was measured by enzyme immunoassay kit following the manufacturer's instructions.

The subject of experiment [6] is Cox-2, iNOS, Bax, Bcl-xl, cyclin D1, E2F2. Description: TNF-α- and LPS-induced inflammatory, apoptosis and cell cycle proteins in SAEC (Western blotting). The experiment is classed as cell-based, human. The conditions noted are these: TNF-α 2 nM or LPS 1 μg/ml, 24 h. On the procedure:
The cells after incubations were lysed in RIPA lysis buffer, and forty micrograms of cytoplasmic proteins were resolved on 10% SDS-PAGE gel. After electrophoresis, the proteins were electro-transferred to a nitrocellulose membrane, blocked with 5% nonfat milk in TBST, and probed with antibodies against COX-2, NOS2, Bax, cyclin D1, E2F2 (1:1,000 dilution) for 2 hr. The blot was then washed, exposed to HRP-conjugated secondary antibodies (1:5,000 dilution) for 1 hr, and the antigen-antibody complex was detected by enhanced chemiluminescence (Amersham Pharmacia Biotech, Piscataway, N.J., USA).
In general terms: In western blotting, separated proteins are transferred to a membrane and probed.

`O=C(O)Cc1nn(Cc2nc3cc(C(F)(F)F)ccc3s2)c(=O)c2ccccc12` [zopolrestat]: in experiment [1], the “prevention of RW-induced cell death” value is listed as > 80%. Also, the “RW-induced increase in cellular ROS levels” value in experiment [2] was “prevented these changes”. Also, in experiment [3] (RW 50 μg/ml), the “prevention of RW-induced NF-κB activation and nuclear translocation” value is reported as > 80%. Also, in experiment [3] (no RW), the “basal NF-κB activity, compound alone” value was “did not affect”. In addition, the inhibition at 20 µM in experiment [4] (Homo sapiens, SAEC, AR inhibitor 20 μM, TNF-α 2 nM or LPS 1 μg/mL, 48 h, read-out: inhibition of TNF-α- and LPS-induced NF-κB-dependent SEAP activation) was > 60%. Also, the “basal NF-κB-SEAP activity, compound alone” value in experiment [4] (no TNF-α or LPS) is “did not affect”. The “reduction of TNF-α concentration in AqH” value in experiment [5] was > 60%. Besides, the “TNF-α- and LPS-induced increase of Cox-2 and iNOS protein expression” value in experiment [6] was “significantly prevented this increase”.
